Results as given in patent US10821065B2, “Peptide for inhibiting biofilms” (SEOUL NATIONAL UNIVERSITY R&DB FOUNDATION, priority 2017, dated 2020).

Experiments:
[1] = system: Streptococcus mutans biofilm; experiment: Streptococcus mutans biofilm formation, 0.1% crystal violet staining; format: cell-based; details: 37° C., 24 hours; for S. mutans biofilm formation (crystal violet), single or co-treatment: 10 μg/ml HBD3-C15, 25 μg/ml CH, 0.02% CHX, or combination, FIG. 2A
Protocol: To confirm the effect of HBD3-C15 on a Streptococcus mutans biofilm, Streptococcus mutans was cultured in a Brain Heart Infusion (BHI) medium. The cultured Streptococcus mutans was prepared at 1×10^7 CFU/ml, and then 1% NaCl or 0.05% sucrose was added thereto to promote biofilm formation, followed by treatment with 50 μg/ml of HBD3-C15. After incubation at 37° C. for 24 hours, 0.1% crystal violet staining was performed for comparison of the degree of biofilm formation.
In addition, 0.05% sucrose was added to Streptococcus mutans, followed with treatment with HBD3-C15 at a concentration of 10 μg/ml, 30 μg/ml, or 50 μg/ml. After incubation at 37° C. for 24 hours, 0.1% crystal violet staining was performed for comparison of the degree of biofilm formation.
To determine whether HBD3-C15 is capable of inhibiting a biofilm by synergistic effects with calcium hydroxide (CH) or chlorohexidine (CHX), which is an existing dental therapeutic agent, Streptococcus mutans was cultured in a BHI medium and then prepared at 1×10^7 CFU/ml, and treated with 10 μg/ml of HBD3-C15, 25 μg/ml of CH, 0.02% CHX, or a combination thereof in the presence of 0.05% sucrose. After incubation at 37° C. for 24 hours, 0.1% crystal violet staining was performed for comparison of the degree of biofilm formation.

[2] = system: Streptococcus mutans biofilm; experiment: Streptococcus mutans biofilm formation on human teeth dentin sections, scanning electron microscope; format: cell-based; details: 10 μg/ml HBD3-C15, 25 μg/ml CH, 0.02% CHX, or combination; 0.05% sucrose; 37° C., 24 hours; FIG. 2B
Protocol: In addition, human teeth dentin sections were prepared to represent an actual oral infection situation, 1×10^7 CFU/ml of Streptococcus mutans was treated, on the dentin sections, with 10 μg/ml of HBD3-C15, 25 μg/ml of CH, 0.02% CHX, or a combination thereof in the presence of 0.05% sucrose. After incubation at 37° C. for 24 hours, comparison of the degree of biofilm formation was conducted using a scanning electron microscope.

[3] = system: Enterococcus faecalis biofilm; experiment: Enterococcus faecalis biofilm formation on dentin sections, scanning electron microscope; format: cell-based; details: 5×10^6 CFU/ml; 10 μg/ml HBD3-C15, 25 μg/ml CH, 0.02% CHX, or combination; 37° C., 24 hours; FIG. 3
Protocol: (§1) To confirm whether the Streptococcus mutans biofilm inhibition through synergistic effects of HBD3-C15 and an existing dental therapeutic agent is reproduced in the formation of biofilms formed by other dental infectious bacteria, Enterococcus faecalis and Streptococcus gordonii were cultured in a BHI medium and a Todd Hewitt yeast (THY) medium, respectively, and then E. faecalis and S. gordonii were prepared at 5×10^6 CFU/ml and 1×10^8 CFU/ml, respectively, and treated, on the dentin sections, with 10 μg/ml of HBD3-C15, 25 μg/ml of CH, 0.02% CHX, or a combination thereof. After incubation at 37° C. for 24 hours, comparison of the degree of biofilm formation was conducted using a scanning electron microscope.

[4] = system: Streptococcus gordonii biofilm; experiment: Streptococcus gordonii biofilm formation on dentin sections, scanning electron microscope; format: cell-based; details: 1×10^8 CFU/ml; 10 μg/ml HBD3-C15, 25 μg/ml CH, 0.02% CHX, or combination; 37° C., 24 hours; FIG. 3
Protocol: as §1

[5] = Tooth discoloration of treated dentin sections, photographed; set-up: species or system human; details: 30 μg/ml HBD3-C15, 0.002% CHX, 0.02% CHX, or combination (2% CHX positive control), 37° C., 7 days, FIG. 5
Protocol: According to previous papers, it has been reported that CHX, which is a typical dental therapeutic agent, causes side effects such as tooth discoloration. Thus, to confirm the effect of treatment with HBD3-C15 alone or a combination of HBD3-C15 and CHX on tooth discoloration, dentin sections were treated with 30 μg/ml of HBD3-C15, 0.002% CHX, 0.02% CHX, or a combination thereof, and 2% CHX was used as a positive control. Subsequently, the dentin sections were cultured at 37° C. for 7 days and photographed to observe the degree of tooth discoloration.

[6] = system: Streptococcus mutans biofilm; experiment: Streptococcus mutans biofilm formation, confocal microscope; format: cell-based; details: HBD3-C15 at 10, 30 or 50 μg/ml; 0.05% sucrose; FIG. 1C

Compound	S. mutans biofilm formation (crystal violet), single or co-treatment ([1]; 0.05% sucrose)	S. mutans biofilm formation on dentin sections (SEM), single or co-treatment [2]	E. faecalis biofilm formation on dentin sections (SEM), single or co-treatment [3]	S. gordonii biofilm formation on dentin sections (SEM), single or co-treatment [4]	tooth discoloration [5]	formation of Streptococcus mutans biofilm (crystal violet) ([1]; 50 μg/ml HBD3-C15, biofilm promoted by 0.05% sucrose, FIG. 1A)	formation of Streptococcus mutans biofilm (crystal violet) ([1]; 50 μg/ml HBD3-C15, biofilm promoted by 1% NaCl, FIG. 1A)	formation of Streptococcus mutans biofilm (crystal violet) ([1]; HBD3-C15 at 10, 30 or 50 μg/ml, 0.05% sucrose, FIG. 1B)	formation of Streptococcus mutans biofilm (confocal microscope) [6]
N=C(NCCCCCCNC(=N)NC(=N)Nc1ccc(Cl)cc1)NC(=N)Nc1ccc(Cl)cc1 [CHX, chlorohexidine]	inhibited	inhibited	inhibited	inhibited	induced by treatment with CHX alone in a concentration-dependent manner	–	–	–	–
G-K-C-S-T-R-G-R-K-C-C-R-R-K-K [HBD3-C15]	inhibited	inhibited	inhibited	inhibited	–	inhibited	inhibited	inhibited in a concentration-dependent manner	inhibit formation of a biofilm in a concentration-dependent manner
[Ca+2].[OH-].[OH-] [CH, calcium hydroxide]	inhibited	inhibited	inhibited	inhibited	–	–	–	–	–
